# Measured values from patent publication US5358951A, “Angiotensin II receptor blocking 2, 3, 6 substituted quinazolinones” (American Cyanamid Company, priority 1993, dated 1994).
# Test system: vasopressor response of angiotensin II
# Assay: AII Challenge: antagonism of angiotensin II vasopressor response
# Type: in vivo
# Conditions: for inhibition in vivo at 1 mg/kg: Rattus norvegicus
# How it was run: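 Percent antagonism is based on the systolic blood pressure rise (mmHg) to i.v. angiotensin II at 0.05 and 0.1 ug/kg. Each rat's own predose response was taken as 100%. Challenges were repeated from 30 to 300 min after i.v., i.p. or oral compound in cannulated conscious male SHR, 16-20 weeks old.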
structure (smiles),measurement,setting,value
"CCCCc1nc2ccc(C3(CO)CC4CCCN4O3)cc2c(=O)n1Cc1ccc(-c2ccccc2-c2nnn[nH]2)cc1 (stereo not drawn) [Example 80, (Trans)-2-butyl-6-[hexahydro-2-(hydroxymethyl)-Pyrrolo[1,2-b]isoxazol-2-yl]-3-[[2'-[1H-tetrazol-5-yl)[1,1'-biphenyl]-4-yl]methyl-4(3H)quinazolinone]",Response Average Change,"1 mg/kg P.O., AII 0.05 mcg/kg IV, 30 min post dose",30 mmHg
same,Response Average Change,"1 mg/kg P.O., AII 0.05 mcg/kg IV, 60 min post dose",15 mmHg
same,Response Average Change,"1 mg/kg P.O., AII 0.05 mcg/kg IV, 90 min post dose",22.5 mmHg
same,Response Average Change,"1 mg/kg P.O., AII 0.05 mcg/kg IV, 120 min post dose",10 mmHg
same,Response Average Change,"1 mg/kg P.O., AII 0.05 mcg/kg IV, 180 min post dose",19 mmHg
same,Response Average Change,"1 mg/kg P.O., AII 0.05 mcg/kg IV, 240 min post dose",17.5 mmHg
same,Response Average Change,"1 mg/kg P.O., AII 0.05 mcg/kg IV, 300 min post dose",30 mmHg
same,Response Average Change,"1 mg/kg P.O., AII 0.1 mcg/kg IV, 30 min post dose",37.5 mmHg
same,Response Average Change,"1 mg/kg P.O., AII 0.1 mcg/kg IV, 60 min post dose",32.5 mmHg
same,Response Average Change,"1 mg/kg P.O., AII 0.1 mcg/kg IV, 90 min post dose",27.5 mmHg
same,Response Average Change,"1 mg/kg P.O., AII 0.1 mcg/kg IV, 120 min post dose",22.5 mmHg
same,Response Average Change,"1 mg/kg P.O., AII 0.1 mcg/kg IV, 180 min post dose",25 mmHg
same,Response Average Change,"1 mg/kg P.O., AII 0.1 mcg/kg IV, 240 min post dose",25 mmHg
same,Response Average Change,"1 mg/kg P.O., AII 0.1 mcg/kg IV, 300 min post dose",27.5 mmHg
same,Response Average Change,"1 mg/kg i.v., AII 0.05 mcg/kg IV, 30 min post dose",5 mmHg
same,Response Average Change,"1 mg/kg i.v., AII 0.05 mcg/kg IV, 60 min post dose",5 mmHg
same,Response Average Change,"1 mg/kg i.v., AII 0.05 mcg/kg IV, 90 min post dose",9 mmHg
same,Response Average Change,"1 mg/kg i.v., AII 0.05 mcg/kg IV, 120 min post dose",12.5 mmHg
same,Response Average Change,"1 mg/kg i.v., AII 0.05 mcg/kg IV, 180 min post dose",12.5 mmHg
same,Response Average Change,"1 mg/kg i.v., AII 0.05 mcg/kg IV, 240 min post dose",20 mmHg
same,Response Average Change,"1 mg/kg i.v., AII 0.05 mcg/kg IV, 300 min post dose",16.5 mmHg
same,Response Average Change,"1 mg/kg i.v., AII 0.1 mcg/kg IV, 30 min post dose",8.5 mmHg
same,Response Average Change,"1 mg/kg i.v., AII 0.1 mcg/kg IV, 60 min post dose",10 mmHg
same,Response Average Change,"1 mg/kg i.v., AII 0.1 mcg/kg IV, 90 min post dose",22.5 mmHg
same,Response Average Change,"1 mg/kg i.v., AII 0.1 mcg/kg IV, 120 min post dose",17.5 mmHg
same,Response Average Change,"1 mg/kg i.v., AII 0.1 mcg/kg IV, 180 min post dose",17.5 mmHg
same,Response Average Change,"1 mg/kg i.v., AII 0.1 mcg/kg IV, 240 min post dose",22.5 mmHg
same,Response Average Change,"1 mg/kg i.v., AII 0.1 mcg/kg IV, 300 min post dose",30 mmHg
same,inhibition in vivo at 1 mg/kg,"iv, 0.5 h, 1 mg/kg i.v., AII 0.05 mcg/kg IV, 30 min post dose",90%
same,inhibition in vivo at 1 mg/kg,"iv, 0.5 h, 1 mg/kg i.v., AII 0.1 mcg/kg IV, 30 min post dose",83%
same,inhibition in vivo at 1 mg/kg,"iv, 1 h, 1 mg/kg i.v., AII 0.05 mcg/kg IV, 60 min post dose",90%
same,inhibition in vivo at 1 mg/kg,"iv, 1 h, 1 mg/kg i.v., AII 0.1 mcg/kg IV, 60 min post dose",80%
same,inhibition in vivo at 1 mg/kg,"iv, 2 h, 1 mg/kg i.v., AII 0.05 mcg/kg IV, 120 min post dose",76%
same,inhibition in vivo at 1 mg/kg,"iv, 2 h, 1 mg/kg i.v., AII 0.1 mcg/kg IV, 120 min post dose",65%
same,inhibition in vivo at 1 mg/kg,"iv, 3 h, 1 mg/kg i.v., AII 0.05 mcg/kg IV, 180 min post dose",76%
same,inhibition in vivo at 1 mg/kg,"iv, 3 h, 1 mg/kg i.v., AII 0.1 mcg/kg IV, 180 min post dose",65%
same,inhibition in vivo at 1 mg/kg,"iv, 4 h, 1 mg/kg i.v., AII 0.05 mcg/kg IV, 240 min post dose",62%
same,inhibition in vivo at 1 mg/kg,"iv, 4 h, 1 mg/kg i.v., AII 0.1 mcg/kg IV, 240 min post dose",55%
same,inhibition in vivo at 1 mg/kg,"iv, 5 h, 1 mg/kg i.v., AII 0.05 mcg/kg IV, 300 min post dose",69%
same,inhibition in vivo at 1 mg/kg,"iv, 5 h, 1 mg/kg i.v., AII 0.1 mcg/kg IV, 300 min post dose",40%
same,inhibition in vivo at 1 mg/kg,"iv, […], 1 mg/kg i.v., AII 0.05 mcg/kg IV, 90 min post dose",83%
same,inhibition in vivo at 1 mg/kg,"iv, […], 1 mg/kg i.v., AII 0.1 mcg/kg IV, 90 min post dose",55%
same,inhibition in vivo at 1 mg/kg,"po, 0.5 h, 1 mg/kg P.O., AII 0.05 mcg/kg IV, 30 min post dose",25%
same,inhibition in vivo at 1 mg/kg,"po, 0.5 h, 1 mg/kg P.O., AII 0.1 mcg/kg IV, 30 min post dose",6%
same,inhibition in vivo at 1 mg/kg,"po, 1 h, 1 mg/kg P.O., AII 0.05 mcg/kg IV, 60 min post dose",63%
same,inhibition in vivo at 1 mg/kg,"po, 1 h, 1 mg/kg P.O., AII 0.1 mcg/kg IV, 60 min post dose",19%
same,inhibition in vivo at 1 mg/kg,"po, 2 h, 1 mg/kg P.O., AII 0.05 mcg/kg IV, 120 min post dose",75%
same,inhibition in vivo at 1 mg/kg,"po, 2 h, 1 mg/kg P.O., AII 0.1 mcg/kg IV, 120 min post dose",44%
same,inhibition in vivo at 1 mg/kg,"po, 3 h, 1 mg/kg P.O., AII 0.05 mcg/kg IV, 180 min post dose",53%
same,inhibition in vivo at 1 mg/kg,"po, 3 h, 1 mg/kg P.O., AII 0.1 mcg/kg IV, 180 min post dose",38%
same,inhibition in vivo at 1 mg/kg,"po, 4 h, 1 mg/kg P.O., AII 0.05 mcg/kg IV, 240 min post dose",56%
same,inhibition in vivo at 1 mg/kg,"po, 4 h, 1 mg/kg P.O., AII 0.1 mcg/kg IV, 240 min post dose",38%
same,inhibition in vivo at 1 mg/kg,"po, 5 h, 1 mg/kg P.O., AII 0.05 mcg/kg IV, 300 min post dose",25%
same,inhibition in vivo at 1 mg/kg,"po, 5 h, 1 mg/kg P.O., AII 0.1 mcg/kg IV, 300 min post dose",31%
same,inhibition in vivo at 1 mg/kg,"po, […], 1 mg/kg P.O., AII 0.05 mcg/kg IV, 90 min post dose",44%
same,inhibition in vivo at 1 mg/kg,"po, […], 1 mg/kg P.O., AII 0.1 mcg/kg IV, 90 min post dose",31%
